Measurements reported in patent publication US20120178682A1, “GB1 Peptidic Compounds and Methods for Making and Using the Same” (priority 2010, published 2012).
Bridge positions count the residues as written; N and C are the ends. Square brackets hold non-standard residues; d marks the D form. Ends that are not written are not given here.

How the values were obtained:
[1] = system: D-VEGF; assay: Phage ELISA after overnight incubation with GuHCl or urea; assay type: binding; conditions: various concentrations of urea or GuHCl; phage incubated overnight
Experimental: During screening for specific binding to target, the presence of a chaotropic agent/denaturant can help select clones with improved stability and affinity. Phage were incubated overnight in the presence of various concentrations of GuHCl and urea and assayed using an ELISA method. […] Various concentrations GuHCl were added to selection wells prior to elution with 100 mM HCl. The selected clones were identified by competitive ELISA and analyzed for IC50 using similar protocols to those described above.

[2] = Melting temperature (Tm) by circular dichroism (CD); assay type: physicochemical; conditions: chemically synthesized compound; CD spectroscopy
Source text: 4.3 Determination of Melting Temperature (Tm) by Circular Dichroism (CD)

[3] = target: T1, L-VEGF (Homo sapiens, UniProt P15692); assay: Competition assay (phage ELISA) with VEGF binding peptides v114 and v128a on L-VEGF; conditions: 100 μM peptide; anti-M13-HRP detection
T1 construct: Synthetic L-VEGF-A (8-109) was folded under the following conditions; made in house; host or cells: total chemical synthesis (SPPS plus native chemical ligation), no expression host
T1 sequence (P15692 214-315): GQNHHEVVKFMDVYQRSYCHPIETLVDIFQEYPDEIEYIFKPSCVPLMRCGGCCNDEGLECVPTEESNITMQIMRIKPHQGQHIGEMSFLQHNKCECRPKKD
Experimental: (§1) To test whether the D-VEGF and L-VEGF binders have the potential to block VEGF-VEGFR1 interaction, a competition assay was performed using VEGF binding peptides v114 and v128a described by Fairbrother et al. (“Novel peptides selected to bind vascular endothelial growth factor target the receptor-binding site,” Biochemistry, 1998, 37, 17754-64). These peptides block the binding of VEGF to VEGFR1 and inhibit angiogenesis.
The peptides v114 ([…]-NH2; SEQ ID NO:296) and v128a ([…]-NH2; SEQ ID NO:297) were prepared in both D- and L-forms (CSBio, Inc.). The following protocol was used in the competitive binding assays: • 1. 5 wells of NUNC 96 well maxisorb plate were coated with D-VEGF (5 μg/ml in PBS) for testing clone E01. Similarly 5 wells were coated with L-VEGF (5 μg/ml in PBS) for each of E01 and B03. The plate was incubated at room temperature with gentle shaking for 2 hours; • 2. The plates were blocked with PBS+0.2% BSA (5 wells+1 extra well for control) for 1 hr at room temperature with gentle shaking; • 3. In the meantime, peptides were diluted in PBT buffer to a concentration of 150 μM; • 4. The plate was washed four times with PT buffer; • 5. 66 μl of each diluted peptide was added to 4 different wells coated with L or D-VEGF (depending on the clone tested). 66 μl of PBT was added to control wells (1 VEGF coated well+1 control well). […] Develop and read plates at 450 nm. […]

[4] = target: D-VEGF; assay: SPR affinity measurements of GB1 peptidic compounds on immobilized D-VEGF; assay type: binding; conditions: target D-VEGF
Experimental: VEGF binding compounds were expressed. Binding affinities were measured using the […] SPR system. SPR analysis was performed on a ProteOn XPR36 Protein Interaction Array System (BioRad). Chemically synthesized L-VEGF, D-VEGF and VEGF165 (Peprotech) were immobilized in 50 mM Sodium Acetate (pH 5.5) to a non-dilute EDAC/sulfo-NHS activated GLC surface on separate channels using a flow rate of […] for 5 minutes in the vertical direction. Immobilization levels were monitored to ensure immobilization of approximately 500 response units of each protein. The domains were then stabilized with PBS for 30 seconds and 0.85% H3PO4 for 18 seconds each at […]. GB1 variants were diluted in PBS plus 0.05% Tween 20 at a starting concentration of 200 nM. The binders were further diluted with PBST 2-fold in series to produce 5 concentrations of variants. A PBST blank was also included. GB1 variant injection parameters were: […], 60 seconds contact time, and 600 seconds dissociation time, in the horizontal direction. VEGF proteins were regenerated with an injection of 0.85% H3PO4 at a flow rate of […] followed by a PBST wash of 30 seconds at […] flow rate.

[5] = system: D-VEGF; assay: Competition assay (phage ELISA) with VEGF binding peptides v114 and v128a on D-VEGF; conditions: 100 μM peptide; anti-M13-HRP detection
Experimental: as §1
The peptides v114 ([…]-NH2; SEQ ID NO:296) and v128a ([…]-NH2; SEQ ID NO:297) were prepared in both D- and L-forms (CSBio, Inc.). The following protocol was used in the competitive binding assays: • 1. 5 wells of NUNC 96 well maxisorb plate were coated with D-VEGF (5 μg/ml in PBS) for testing clone E01. Similarly 5 wells were coated with L-VEGF (5 μg/ml in PBS) for each of E01 and B03. The plate was incubated at room temperature with gentle shaking for 2 hours; • 2. The plates were blocked with PBS+0.2% BSA (5 wells+1 extra well for control) for 1 hr at room temperature with gentle shaking; • 3. In the meantime, peptides were diluted in PBT buffer to a concentration of 150 μM; • 4. The plate was washed four times with PT buffer; • 5. 66 μl of each diluted peptide was added to 4 different wells coated with L or D-VEGF (depending on the clone tested). 66 μl of PBT was added to control wells (1 VEGF coated well+1 control well). Incubate for 30 min at room temperature with shaking; • 6. Add 33 μl of fresh phage supernatant from overnight culture to each of the […] containing peptide solution. Incubate for 15 min at room temperature with shaking. • 7. Wash plate 6 times with PT buffer; • 8. Add 66 μl of anti-M13-HRP antibody (1:3000 dilution in PBT) to each well and incubate for 30 min at room temperature with shaking; • 9. Wash plate 4 times with PT buffer. Develop and read plates at 450 nm.
Phage binding to L and D-VEGF was tested in the presence and absence of 100 μM of each peptide (e.g., at 100 times affinity to saturate VEGF) using anti-M13-HRP to detect the bound phage.

[6] = Table 2, GB1-E01 double mutants

In the case of “TYKLILNGKTLKGEFTLEAVDLFDAFDVFFVYAASNFSFFDDWTYDDATKTFTVTE ([dT][dY][dK][dL][dI][dL][dN]G[dK][dT][dL][dK]G[dE][dF][dT][dL][dE][dA][dV][dD][dL][dF][dD][dA][dF][dD][dV][dF][dF][dV][dY][dA][dA][dS][dN][dF][dS][dF][dF][dD][dD][dW][dT][dY][dD][dD][dA][dT][dK][dT][dF][dT][dV][dT][dE]; not fully specified) [RFX025]”, the “binding to D-VEGF in presence of denaturant” value [1] is reported as “bind specifically” and the “melting temperature (Tm)” value [2] is reported as 66.6 °C.

In the case of “TYKLILNGKTLKGETTTEAVDFYYAFSVFFSYASSNSSDYVSWTYDDATKTFTVTE [Clone B03]”, the “phage binding to L-VEGF in the presence of D-peptides (D-v114, D-v128a)” value [3] is reported as “do not inhibit”.

Substance “E01: pre-affinity matured parent D-VEGF binding GB1 clone, SEQ ID NO:79 (TYKLILNGKTLKGETTTEAVDVYDAFDVFFVYAASNFSDFDDWTYDDATKTFTVTE) [Clone E01]” has a Kd ([4]; Table 1) of 13.4 nM, a Koff ([4]; Table 1) of 0.00347 s⁻¹ and a Kon ([4]; Table 1, E01 point mutants expressed in E. coli) of 260000 M⁻¹ s⁻¹. For the same substance, the Kd [4, 6] was 3.46 nM, the Koff [4, 6] was 0.00117 s⁻¹ and the Kon [4, 6] was 338000 M⁻¹ s⁻¹. For the same substance, the “phage binding to D-VEGF in the presence of D-v114” value [5] was “completely blocked”, the “phage binding to D-VEGF in the presence of D-v128a” value [5] was “partially blocked” and the “phage binding to D-VEGF in the presence of L-peptides (L-v114, L-v128a)” value [5] was “do not inhibit”.

In the case of “TYKMILNGKTLKSECTTEAVDLFDAFDVLFVCAASNFSFIDDWTYDDATKTFTVTE ([dT][dY][dK][dM][dI][dL][dN]G[dK][dT][dL][dK][dS][dE][dC][dT][dT][dE][dA][dV][dD][dL][dF][dD][dA][dF][dD][dV][dL][dF][dV][dC][dA][dA][dS][dN][dF][dS][dF][dI][dD][dD][dW][dT][dY][dD][dD][dA][dT][dK][dT][dF][dT][dV][dT][dE]; disulfide 15-32 (inferred); not fully specified) [RFX002]”, the “binding to D-VEGF in presence of denaturant” value [1] is reported as “bind specifically” and the “melting temperature (Tm)” value [2] is reported as 66.9 °C.
